Laboratory results as given in PubChem BioAssay (NCI).
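Method: 48-hour compound exposure of cells in 96-well plates, five concentrations, linear interpolation of endpoints. TGI: concentration producing complete growth inhibition.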

Legend:
Assay in all cases: growth of human tumour cells (NCI), 48 h
HT29 colon = tested on: HT29 colon
HCT-15 colon = tested on: HCT-15 colon
U251 CNS = tested on: U251 CNS
IGROV1 ovarian = tested on: IGROV1 ovarian
HS 578T breast = tested on: HS 578T breast
OVCAR-4 ovarian = tested on: OVCAR-4 ovarian
SF-295 CNS = tested on: SF-295 CNS
CAKI-1 renal = tested on: CAKI-1 renal
RXF 393 renal = tested on: RXF 393 renal
HCT-116 colon = tested on: HCT-116 colon
UO-31 renal = tested on: UO-31 renal
MDA-MB-435 = tested on: MDA-MB-435
HOP-92 NSCLC = tested on: HOP-92 NSCLC
LOX IMVI melanoma = tested on: LOX IMVI melanoma
786-0 renal = tested on: 786-0 renal
NCI-H460 lung = tested on: NCI-H460 lung
ACHN renal = tested on: ACHN renal
RPMI-8226 leukemia = tested on: RPMI-8226 leukemia
KM12 colon = tested on: KM12 colon
A549 NSCLC = tested on: A549 NSCLC
HCC-2998 colon = tested on: HCC-2998 colon
K-562 leukemia = tested on: K-562 leukemia
OVCAR-3 ovarian = tested on: OVCAR-3 ovarian
MALME-3M melanoma = tested on: MALME-3M melanoma
HOP-62 NSCLC = tested on: HOP-62 NSCLC
OVCAR-5 ovarian = tested on: OVCAR-5 ovarian
SK-MEL-5 melanoma = tested on: SK-MEL-5 melanoma
OVCAR-8 ovarian = tested on: OVCAR-8 ovarian
A498 renal = tested on: A498 renal
DU-145 prostate = tested on: DU-145 prostate
MDA-N = tested on: MDA-N
T-47D breast = tested on: T-47D breast
SK-MEL-2 melanoma = tested on: SK-MEL-2 melanoma
SNB-75 CNS = tested on: SNB-75 CNS
NCI-H226 lung = tested on: NCI-H226 lung
PC-3 prostate = tested on: PC-3 prostate
SN12C renal = tested on: SN12C renal
SF-539 CNS = tested on: SF-539 CNS
UACC-62 melanoma = tested on: UACC-62 melanoma
MDA-MB-231 breast = tested on: MDA-MB-231 breast
SW-620 colon = tested on: SW-620 colon
SK-MEL-28 melanoma = tested on: SK-MEL-28 melanoma
SK-OV-3 ovarian = tested on: SK-OV-3 ovarian
COLO 205 colon = tested on: COLO 205 colon
NCI-H522 lung = tested on: NCI-H522 lung
NCI/ADR-RES ovarian = tested on: NCI/ADR-RES ovarian
SF-268 CNS = tested on: SF-268 CNS
BT-549 breast = tested on: BT-549 breast
UACC-257 melanoma = tested on: UACC-257 melanoma
M14 melanoma = tested on: M14 melanoma
NCI-H23 lung = tested on: NCI-H23 lung
EKVX NSCLC = tested on: EKVX NSCLC
MCF7 breast = tested on: MCF7 breast
SNB-19 CNS = tested on: SNB-19 CNS
TK-10 renal = tested on: TK-10 renal
HL-60(TB) leukemia = tested on: HL-60(TB) leukemia
MOLT-4 leukemia = tested on: MOLT-4 leukemia

SMILES: CN(C)C(=S)N/N=C(\C(=N/NC(=S)N(C)C)c1ccccn1)c1ccccn1
- TGI (HT29 colon): 17.6 µM
- TGI (HCT-15 colon): 31.6 µM
- TGI (U251 CNS): 20.4 µM
- TGI (IGROV1 ovarian): 27.1 µM
- TGI (HS 578T breast): > 46 µM
- TGI (OVCAR-4 ovarian): 26.8 µM
- TGI (SF-295 CNS): 29.6 µM
- TGI (CAKI-1 renal): 34.1 µM
- TGI (RXF 393 renal): 18.1 µM
- TGI (HCT-116 colon): 25.1 µM
- TGI (UO-31 renal): 21.6 µM
- TGI (MDA-MB-435): 26 µM
- TGI (HOP-92 NSCLC): 22.1 µM
- TGI (LOX IMVI melanoma): > 100 µM
- TGI (786-0 renal): 27 µM
- TGI (NCI-H460 lung): 22.7 µM
- TGI (ACHN renal): 20.1 µM
- TGI (RPMI-8226 leukemia): > 100 µM
- TGI (KM12 colon): 33.6 µM
- TGI (A549 NSCLC): 27.3 µM
- TGI (HCC-2998 colon): 37.5 µM
- TGI (K-562 leukemia): > 100 µM
- TGI (OVCAR-3 ovarian): 14.6 µM
- TGI (MALME-3M melanoma): 33.9 µM
- TGI (HOP-62 NSCLC): 38.7 µM
- TGI (OVCAR-5 ovarian): 55.1 µM
- TGI (SK-MEL-5 melanoma): 24.5 µM
- TGI (OVCAR-8 ovarian): 77.7 µM
- TGI (A498 renal): 30.2 µM
- TGI (DU-145 prostate): 10.8 µM
- TGI (MDA-N): > 54 µM
- TGI (T-47D breast): 8.79 µM
- TGI (SK-MEL-2 melanoma): 36.7 µM
- TGI (SNB-75 CNS): 27.4 µM
- TGI (NCI-H226 lung): 28.2 µM
- TGI (PC-3 prostate): 24.4 µM
- TGI (SN12C renal): 20.3 µM
- TGI (SF-539 CNS): > 100 µM
- TGI (UACC-62 melanoma): 32.8 µM
- TGI (MDA-MB-231 breast): 43.1 µM
- TGI (SW-620 colon): 29.9 µM
- TGI (SK-MEL-28 melanoma): 34.4 µM
- TGI (SK-OV-3 ovarian): 30.4 µM
- TGI (COLO 205 colon): 24.2 µM
- TGI (NCI-H522 lung): 9.26 µM
- TGI (NCI/ADR-RES ovarian): 62.1 µM
- TGI (SF-268 CNS): 23.7 µM
- TGI (BT-549 breast): 35.5 µM
- TGI (UACC-257 melanoma): 50 µM
- TGI (M14 melanoma): 42.3 µM
- TGI (NCI-H23 lung): > 53.2 µM
- TGI (EKVX NSCLC): 36.7 µM
- TGI (MCF7 breast): > 48.7 µM
- TGI (SNB-19 CNS): 31.8 µM
- TGI (TK-10 renal): 22.2 µM

SMILES: O=C1NC(c2c(Cl)cccc2Cl)Nc2ccccc21 (centres undefined)
- TGI (HT29 colon): > 100 µM
- TGI (HCT-15 colon): > 100 µM
- TGI (U251 CNS): > 100 µM
- TGI (IGROV1 ovarian): > 100 µM
- TGI (HS 578T breast): 74.1 µM
- TGI (OVCAR-4 ovarian): > 100 µM
- TGI (SF-295 CNS): > 100 µM
- TGI (CAKI-1 renal): 76.7 µM
- TGI (RXF 393 renal): > 100 µM
- TGI (HCT-116 colon): > 100 µM
- TGI (UO-31 renal): > 100 µM
- TGI (MDA-MB-435): 33 µM
- TGI (HOP-92 NSCLC): > 100 µM
- TGI (LOX IMVI melanoma): > 100 µM
- TGI (786-0 renal): > 100 µM
- TGI (NCI-H460 lung): > 100 µM
- TGI (HL-60(TB) leukemia): 46.9 µM
- TGI (ACHN renal): > 100 µM
- TGI (RPMI-8226 leukemia): > 100 µM
- TGI (KM12 colon): 43.7 µM
- TGI (MOLT-4 leukemia): > 100 µM
- TGI (A549 NSCLC): > 100 µM
- TGI (OVCAR-3 ovarian): > 100 µM
- TGI (MALME-3M melanoma): 88.7 µM
- TGI (HOP-62 NSCLC): > 100 µM
- TGI (OVCAR-5 ovarian): > 100 µM
- TGI (SK-MEL-5 melanoma): 72.7 µM
- TGI (OVCAR-8 ovarian): > 100 µM
- TGI (A498 renal): > 100 µM
- TGI (DU-145 prostate): > 100 µM
- TGI (MDA-N): 70.5 µM
- TGI (T-47D breast): > 100 µM
- TGI (SK-MEL-2 melanoma): > 100 µM
- TGI (SNB-75 CNS): 37.4 µM
- TGI (NCI-H226 lung): > 100 µM
- TGI (PC-3 prostate): > 100 µM
- TGI (SN12C renal): > 100 µM
- TGI (SF-539 CNS): > 100 µM
- TGI (UACC-62 melanoma): > 100 µM
- TGI (MDA-MB-231 breast): > 100 µM
- TGI (SW-620 colon): > 100 µM
- TGI (SK-MEL-28 melanoma): > 100 µM
- TGI (SK-OV-3 ovarian): > 100 µM
- TGI (COLO 205 colon): > 100 µM
- TGI (NCI-H522 lung): > 100 µM
- TGI (NCI/ADR-RES ovarian): > 100 µM
- TGI (SF-268 CNS): > 100 µM
- TGI (BT-549 breast): > 100 µM
- TGI (UACC-257 melanoma): > 100 µM
- TGI (M14 melanoma): > 100 µM
- TGI (EKVX NSCLC): > 100 µM
- TGI (MCF7 breast): > 100 µM
- TGI (SNB-19 CNS): > 100 µM
- TGI (TK-10 renal): > 100 µM
